{
  "source": "patent US8435929B2",
  "about": "“1-aminocyclopropane carboxylic acid as a fruit thinner” (Valent BioSciences Corporation, priority 2009, dated 2013)",
  "key": {"[1]": {"test_system": "Babygold #5 peach", "assay": "Field thinning study, fruit set of Babygold #5 peach", "format": "in vivo", "procedure": "(§1) A series of field studies on stone fruit thinning were performed over several seasons, on different varieties and in various locations to determine the consistency of the thinning effect of ACC. Even without the application of a chemical thinning agent, crop load (number of fruit remaining divided by the number of flowers or fruit prior to application) was variable. Chemical thinning of stone fruit is variable and dependent on many factors including variety and environment. An acceptable chemical thinning agent is one that gives a substantial and relatively consistent reduction in crop load for a given dose over a wide range of trials.\nThe effect of ACC rate and timing was determined. ACC was sprayed on Babygold #5 peach trees at bloom (Table 1) or shuck split (early fruitlet stage) (Table 2)."}, "[2]": {"test_system": "Tatura 204 peaches", "assay": "Field thinning study, fruit set of Tatura 204 peaches", "format": "in vivo, peach", "settings": "application at late shuck fall", "procedure": "as §1\nACC was sprayed on Tatura 204 peach trees at late shuck fall (Table 3)."}, "[3]": {"test_system": "cotton cotyledons", "assay": "Cotton cotyledon bioassay, ethylene production", "format": "in vivo", "text": "For laboratory and growth chamber studies, deionized ultra-pure water was used in preparing solutions. Spray solutions were used as soon as possible after mixing. All spray solutions were amended with spray adjuvants as appropriate. A cotton cotyledon bioassay was used in the laboratory to study the effects of ACC or ethephon on induction of ethylene. Ten day old cotton plants with fully expanded cotyledons were used. Sprays were made to the upper (adaxial) surface of the leaves and the plants were then incubated in growth cabinets at the temperatures indicated. The cotyledons were excised at the times indicated and placed in sealed plastic vials. Headspace ethylene samples were measured on a Hewlett Packard 5890 gas chromatograph equipped with a packed Haysep T column (Alltech, Deerfield, Ill.) and a flame ionization detector.\nSelected characteristics of ACC conversion to ethylene (i.e. dose response, time course, and temperature effect) were assessed to determine whether the relative consistence of ACC as a stone fruit and apple thinner was related to performance as an ethylene producer. In these bioassays, ACC solutions were applied to cotton cotyledons by a hand sprayer at the doses indicated and all spray solutions contained 0.05% (v/v) L-77.\nIn the first study, the effect of ACC dose sprays on ethylene produced by cotton cotyledons was determined. (Table 16). Cotton plants were sprayed with solution (ACC at 1, 10, 25, 50, 100, 250, 500, or 1000 ppm) and the cotyledons were excised 6 or 24 h after spraying and incubated in sealed tubes for 4 h. Ethylene levels were determined production was assayed.\nIn the second study, the time course of ethylene production following application of 500 mg/liter ACC or ethephon was determined (Table 17).\nIn the third study, the effect of temperature on ethylene production following ACC or ethephon application was determined (Table 18). The incubation of the plants following spraying and the incubation of the detached leaves were performed at 25 and 35° C."}, "[4]": {"test_system": "Babygold #5 peach", "assay": "Field thinning study, fruit set of Babygold #5 peach", "format": "in vivo", "remark": "listed apart in the source"}, "[5]": {"test_system": "Summer Rich peaches", "assay": "Field thinning study, fruit set, fruit weight and crop safety of Summer Rich peaches"}, "[6]": {"settings": "100 ppm, application at shuck split, 0.05% Regulaid adjuvant"}, "[7]": {"settings": "300 ppm, application at shuck split, 0.05% Regulaid adjuvant"}, "[8]": {"settings": "1000 ppm, application at shuck split, 0.05% Regulaid adjuvant"}, "[9]": {"settings": "500 ppm, application at petal fall, trial of Table 4"}, "[10]": {"settings": "500 ppm, application at petal fall, trial of Table 5 (other location)"}, "[11]": {"settings": "750 ppm, application at petal fall, trial of Table 4"}, "[12]": {"settings": "750 ppm, application at petal fall, trial of Table 5 (other location)"}},
  "data": [
    {"smiles": "NC1(C(=O)O)CC1", "note": "[ACC, 1-aminocyclopropane carboxylic acid]", "values": [
      {"measurement": "Crop load (percent) of treated trees compared to the water control", "setting": "[1]; 100 ppm, application at bloom", "result": 90, "unit": "%"},
      {"measurement": "Crop load (percent) of treated trees compared to the water control", "setting": "[1]; [6]", "result": 102, "unit": "%"},
      {"measurement": "Crop load (percent) of treated trees compared to the water control", "setting": "[1]; 300 ppm, application at bloom", "result": 77, "unit": "%"},
      {"measurement": "Percent fruit set", "setting": "[1]; 300 ppm, application at bloom", "result": 57, "unit": "%"},
      {"measurement": "Percent fruit set", "setting": "[1]; [7]", "result": 61, "unit": "%"},
      {"measurement": "Crop load (percent) of treated trees compared to the water control", "setting": "[1]; 1000 ppm, application at bloom", "result": 40, "unit": "%"},
      {"measurement": "Percent fruit set", "setting": "[1]; 1000 ppm, application at bloom", "result": 30, "unit": "%"},
      {"measurement": "Percent fruit set", "setting": "[1]; [8]", "result": 11, "unit": "%"},
      {"measurement": "Crop load (percent) of treated trees compared to the untreated control", "setting": "[2]; 100 ppm", "result": 86, "unit": "%"},
      {"measurement": "Percent fruit set", "setting": "[2]; 100 ppm", "result": 65, "unit": "%"},
      {"measurement": "Crop load (percent) of treated trees compared to the untreated control", "setting": "[2]; 300 ppm", "result": 57, "unit": "%"},
      {"measurement": "Percent fruit set", "setting": "[2]; 300 ppm", "result": 43, "unit": "%"},
      {"measurement": "Crop load (percent) of treated trees compared to the untreated control", "setting": "[2]; 500 ppm", "result": 39, "unit": "%"},
      {"measurement": "Percent fruit set", "setting": "[2]; 500 ppm", "result": 30, "unit": "%"},
      {"measurement": "Crop load (percent) of treated trees compared to the untreated control", "setting": "[2]; 1000 ppm", "result": 36, "unit": "%"},
      {"measurement": "Percent fruit set", "setting": "[2]; 1000 ppm", "result": 27, "unit": "%"},
      {"measurement": "Ethylene production", "setting": "[3]; 10 ppm, 6 h after spraying, 25 C", "result": "4.2 nl/g leaf weight/h incubated"},
      {"measurement": "Ethylene production", "setting": "[3]; 10 ppm, 24 h after spraying, 25 C", "result": "13.7 nl/g leaf weight/h incubated"},
      {"measurement": "Ethylene production", "setting": "[3]; 25 ppm, 6 h after spraying, 25 C", "result": "5.9 nl/g leaf weight/h incubated"},
      {"measurement": "Ethylene production", "setting": "[3]; 25 ppm, 24 h after spraying, 25 C", "result": "22.8 nl/g leaf weight/h incubated"},
      {"measurement": "Ethylene production", "setting": "[3]; 50 ppm, 6 h after spraying, 25 C", "result": "8.3 nl/g leaf weight/h incubated"},
      {"measurement": "Ethylene production", "setting": "[3]; 50 ppm, 24 h after spraying, 25 C", "result": "32.4 nl/g leaf weight/h incubated"},
      {"measurement": "Ethylene production", "setting": "[3]; 100 ppm, 6 h after spraying, 25 C", "result": "11.8 nl/g leaf weight/h incubated"},
      {"measurement": "Ethylene production", "setting": "[3]; 100 ppm, 24 h after spraying, 25 C", "result": "45.2 nl/g leaf weight/h incubated"},
      {"measurement": "Ethylene production", "setting": "[3]; 200 ppm, 24 h after application, incubated at 25 C", "result": "35.7 nl/g leaf weight/h incubated"},
      {"measurement": "Ethylene production", "setting": "[3]; 200 ppm, 24 h after application, incubated at 35 C", "result": "19.9 nl/g leaf weight/h incubated"},
      {"measurement": "Ethylene production", "setting": "[3]; 250 ppm, 6 h after spraying, 25 C", "result": "19.4 nl/g leaf weight/h incubated"},
      {"measurement": "Ethylene production", "setting": "[3]; 250 ppm, 24 h after spraying, 25 C", "result": "59.8 nl/g leaf weight/h incubated"},
      {"measurement": "Ethylene production", "setting": "[3]; 500 ppm, 1 h following spray application, 25 C (time course)", "result": "62.8 nl/g leaf weight/h incubated"},
      {"measurement": "Ethylene production", "setting": "[3]; 500 ppm, 4 h following spray application, 25 C (time course)", "result": "36.7 nl/g leaf weight/h incubated"},
      {"measurement": "Ethylene production", "setting": "[3]; 500 ppm, 6 h after spraying, 25 C", "result": "22.8 nl/g leaf weight/h incubated"},
      {"measurement": "Ethylene production", "setting": "[3]; 500 ppm, 15 h following spray application, 25 C (time course)", "result": "45.7 nl/g leaf weight/h incubated"},
      {"measurement": "Ethylene production", "setting": "[3]; 500 ppm, 24 h after spraying, 25 C", "result": "64.4 nl/g leaf weight/h incubated"},
      {"measurement": "Ethylene production", "setting": "[3]; 500 ppm, 24 h following spray application, 25 C (time course)", "result": "49.3 nl/g leaf weight/h incubated"},
      {"measurement": "Ethylene production", "setting": "[3]; 500 ppm, 48 h following spray application, 25 C (time course)", "result": "45.3 nl/g leaf weight/h incubated"},
      {"measurement": "Ethylene production", "setting": "[3]; 1000 ppm, 6 h after spraying, 25 C", "result": "25.1 nl/g leaf weight/h incubated"},
      {"measurement": "Ethylene production", "setting": "[3]; 1000 ppm, 24 h after spraying, 25 C", "result": "92.1 nl/g leaf weight/h incubated"},
      {"measurement": "Percent fruit set", "setting": "[4]; 100 ppm, application at bloom", "result": 67, "unit": "%"},
      {"measurement": "Percent fruit set", "setting": "[4]; [6]", "result": 85, "unit": "%"},
      {"measurement": "Crop load (percent) of treated trees compared to the water control", "setting": "[4]; [7]", "result": 72, "unit": "%"},
      {"measurement": "Percent Fruit Set", "setting": "[4]; 500 ppm, 10 mm fruitlet timing", "result": 6.7, "unit": "%"},
      {"measurement": "Crop load (percent) of treated trees compared to the untreated control", "setting": "[4]; [9]", "result": 67, "unit": "%"},
      {"measurement": "Percent fruit set", "setting": "[4]; [9]", "result": 32, "unit": "%"},
      {"measurement": "Crop load (percent) of treated trees compared to the untreated control", "setting": "[4]; [10]", "result": 98, "unit": "%"},
      {"measurement": "Percent fruit set", "setting": "[4]; [10]", "result": 42, "unit": "%"},
      {"measurement": "Crop load (percent) of treated trees compared to the untreated control", "setting": "[4]; [11]", "result": 50, "unit": "%"},
      {"measurement": "Percent fruit set", "setting": "[4]; [11]", "result": 24, "unit": "%"},
      {"measurement": "Crop load (percent) of treated trees compared to the untreated control", "setting": "[4]; [12]", "result": 72, "unit": "%"},
      {"measurement": "Percent fruit set", "setting": "[4]; [12]", "result": 31, "unit": "%"},
      {"measurement": "Crop load (percent) of treated trees compared to the water control", "setting": "[4]; [8]", "result": 14, "unit": "%"},
      {"measurement": "Crop load (percent) of treated trees compared to the untreated control", "setting": "[5]; 500 ppm at 15 mm fruit stage", "result": 34, "unit": "%"},
      {"measurement": "Crop safety on vegetation (0-4 scale)", "setting": "[5]; 500 ppm at 15 mm fruit stage", "result": "3.0 0-4 scale"},
      {"measurement": "Fruit weight at maturity", "setting": "[5]; 500 ppm at 15 mm fruit stage", "result": 144, "unit": "g"},
      {"measurement": "Percent fruit set", "setting": "[5]; 500 ppm at 15 mm fruit stage", "result": 24, "unit": "%"},
      {"measurement": "Crop load (percent) of treated trees compared to the untreated control", "setting": "[5]; 500 ppm at petal fall", "result": 55, "unit": "%"},
      {"measurement": "Crop safety on vegetation (0-4 scale)", "setting": "[5]; 500 ppm at petal fall", "result": "0.5 0-4 scale"},
      {"measurement": "Fruit weight at maturity", "setting": "[5]; 500 ppm at petal fall", "result": 140, "unit": "g"},
      {"measurement": "Percent fruit set", "setting": "[5]; 500 ppm at petal fall", "result": 39, "unit": "%"},
      {"measurement": "Crop load (percent) of treated trees compared to the untreated control", "setting": "[5]; 750 ppm at 15 mm fruit stage", "result": 24, "unit": "%"},
      {"measurement": "Crop safety on vegetation (0-4 scale)", "setting": "[5]; 750 ppm at 15 mm fruit stage", "result": "3.5 0-4 scale"},
      {"measurement": "Fruit weight at maturity", "setting": "[5]; 750 ppm at 15 mm fruit stage", "result": 169, "unit": "g"},
      {"measurement": "Percent fruit set", "setting": "[5]; 750 ppm at 15 mm fruit stage", "result": 17, "unit": "%"},
      {"measurement": "Crop load (percent) of treated trees compared to the untreated control", "setting": "[5]; 750 ppm at petal fall", "result": 39, "unit": "%"},
      {"measurement": "Crop safety on vegetation (0-4 scale)", "setting": "[5]; 750 ppm at petal fall", "result": "0.8 0-4 scale"},
      {"measurement": "Fruit weight at maturity", "setting": "[5]; 750 ppm at petal fall", "result": 151, "unit": "g"},
      {"measurement": "Percent fruit set", "setting": "[5]; 750 ppm at petal fall", "result": 28, "unit": "%"},
      {"measurement": "Leaf yellowing and leaf loss", "setting": "[5]; application at petal fall, stated for both varieties (Summer Rich and O'Henry)", "result": "minimized leaf yellowing and leaf loss"}
    ]}
  ]
}
